Values of other authors in patent publication US10017479B2, “Process to make non nucleosidal reverse transcriptase inhibitors (NNRTI) for the treatment of HIV” (priority 2013, dated 2018).

Columns and labels:
[1] = system: mutated strains of HIV-1
[2] = system: wild type strains of HIV-1

O=C(CSc1nnnn1-c1cccc2ccccc12)Nc1ccccc1[N+](=O)[O-] [compound 3, 2-((1-(naphthalen-1-yl)-1H-tetrazol-5-yl)thio)-N-(2-nitrophenyl)actetamid-e]
activity against the mutated strains of HIV-1 [1]: nanomolar activity
activity against the wild type strains of HIV-1 [2]: nanomolar activity
